Source: patent publication EP1398031A1, “Use of 6-amino-quinoline-5,8-quinones and nucleic acids associated with senescence for the treatment of tumors” (Max-Planck-Gesellschaft zur Förderung der Wissenschaften …, priority 2002, dated 2004)

Assays:
[1] = system: p21 protein in HCT116 cells; experiment: Western blot analysis, p21; format: cell-based, human
Description: (§1) Cells were lysed in a lysis buffer composed of 50 mM HEPES pH 7.5, 150 mM NaCl, 1 mM EGTA, 10 % glycerol, 1 % Triton X-100, 100 mM NaF, 10 mM Na4P2O7, 1 µM PMSF, and 1 µM Na3VO4. Protein concentration in whole lysates was determined using a Bradford assay (BioRad). 20 µg of lysates diluted with Laemmli-buffer were separated on 12 % SDS-polyacrylamide gels and transferred to Immobilon-P membranes (Millipore). For detection of pRb, separation was performed on a 7-12 % gradient gel. Antibodies against p53 (Pab 1801), p21 (c-19), p16 (c-20) and α-Tubulin (TU-02) were purchased from Santa Cruz Biotechnology. Anti-pRB antibodies (G3-245) were from BD PharMingen. Enhanced chemiluminescence generated by horse radish peroxidase-coupled secondary antibodies was detected with a CF440 imager (Kodak/Perkin Elmer).

[2] = system: p21 mRNA in HDF; experiment: Northern blot analysis of p21 mRNA; format: cell-based, human; details: 0.2 µg/ml adriamycin
Description: (§2) RNA was isolated using the RNAgents kit (Promega). A Northern probe directed against the 3'-untranslated region of ELF1 α mRNA was generated by PCR using an EST as template and subsequent gel purification. The p21 probe corresponds to the open reading frame of p21. A probe corresponding to the 5'-region of sGC-β3 was amplified from HDF-cDNA and subcloned. Hybridizations were performed in QuickHyb, following the manufacturer's instructions (Stratagene).

[3] = system: p21-deficient HCT116 colorectal cancer cells; experiment: proliferation assay (cell counting); format: cell-based, human
Description: (§3) Cells were seeded in equal numbers in 6-well plates the day before addition of LY in order to ensure uniform cell layers at the start of the experiments. Cells were treated in triplicates with daily exchange of medium containing drug or drug-free vehicle. For each time point cells were trypsinized and cell proliferation was assessed using a Z1 Counter (Coulter).

[4] = system: HCT116; experiment: proliferation assay (cell counting); format: cell-based, human
Description: as §3

[5] = system: DLD1; experiment: proliferation assay (cell counting); format: cell-based, human; details: after addition of LY
Description: as §3

[6] = system: MCF7; experiment: proliferation assay (cell counting); format: cell-based, human; details: after addition of LY
Description: as §3

[7] = system: p53-deficient HCT116 cells; experiment: proliferation assay (cell counting); format: cell-based, human; details: after LY addition
Description: as §3

[8] = system: HDF; experiment: SA-β-gal staining and morphology; format: cell-based, human; details: early passage HDF treated with LY
Description: Cells were fixed by incubation in 0.5 % glutaraldehyde in PBS for 5 minutes at room temperature and stained for SA-ß-galactosidase at pH 6.0 as described by Dimri et al., 1995.
(§4) For phase contrast and β-gal staining an Axiovert 25 microscope (Zeiss) equipped with a HyperHAD CCD camera (Sony) and ImageBase software (Kappa) was used. In vivo expression of histone-H2B-eGFP was documented with a Photometrics CooISNAP-HQ CCD camera (Roper Scientific) on an inverted Axiovert 200M microscope (Zeiss) using the Metamorph software (Universal Imaging).

[9] = system: HDF; experiment: FACS analysis of cell cycle after release from confluence; format: cell-based, human; details: HDF synchronized by confluence, released by trypsinization; 1 µM LY, 24 and 36 hours
Description: (§5) Cell samples (both adherent and floating cells) were harvested by trypsinization, washed once with PBS and fixed in 70 % ethanol for > 2 hours on ice, washed once with PBS and incubated for 30 minutes at room temperature in staining solution containing 50 µg/ml of propidium iodide, 0.2 mg/ml of RNase A and 0.1 % (v/v) Triton X-100 in PBS. Quantification of apoptotic cells was performed using the Annexin V-FITC apoptosis detection kit (Becton Dickinson). Samples were analyzed with a FACScan unit (Becton Dickinson). 1×10^4 cells were analyzed for each assay. Quantitation was performed using single histogram statistics.

[10] = system: p16INK4A in HDF; experiment: Western blot analysis, p16; format: cell-based, human; details: 48 hours of treatment with LY
Description: as §1

[11] = system: p53 protein in HDF; experiment: Western blot analysis, p53; format: cell-based, human; details: after treatment with LY
Description: as §1

[12] = system: cdk-inhibitors p27 and p15; experiment: induction of cdk-inhibitors (data not shown); format: cell-based; details: LY-treatment
[13] = system: HDF; experiment: cGMP assay (competitive immunoassay on cell lysates); format: cell-based; details: Homo sapiens, 1 µM LY, 100 µM SNP for 2 hours, read-out: inhibition of the SNP-induced synthesis of cGMP
Description: Cells of early and late passages were seeded in equal numbers in 6-well plates. 24 hours later SNP (Sigma) was dissolved in complete medium and added to cells to a final concentration of 100 µM. Control cells received the same volume of drug-free medium. After 2 hours of incubation, medium was removed and cells were lysed by addition of 400 µl 0.1 M HCl per well for 10 minutes. cGMP concentration in lysates was determined using a specific competitive immunoassay according to the manufacturer's instructions (Sigma). A plate reader (LAMBDA E, MWG-Biotech) was used to detect the signal at 405 nm. Experiments were performed in triplicates with all samples measured twice.

[14] = system: pRb in HDF; experiment: Western blot analysis, pRb phosphorylation status; format: cell-based, human
Description: as §1

[15] = system: HEK293; experiment: cell death (data not shown); format: cell-based, human; details: treatment with LY, no arrest
[16] = system: HDF; experiment: detection of DNA-synthesis (BrdU incorporation); format: cell-based, human; details: 1 µM LY; synchronized HDF; 10 µM BrdU for 6 hours
Description: Cells were plated on cell locate glass grids (Eppendorf) and labeled for 6 hours using the 5'-bromo-2'-deoxy-uridine labelling and detection kit I (Roche Applied Sciences). After staining with a FITC-labeled anti-BrdU-antibody, positive cells were detected by fluorescence microscopy.

[17] = system: NIH3T3-L1 cells expressing wildtype SV40 large T antigen; experiment: proliferation assay, morphology and annexin V staining; format: cell-based, mouse; details: 1.5 µM LY
Description: as §5, §3

[18] = molecular target: soluble guanylate cyclase; details: competitive inhibitor of soluble guanylate cyclase; Fleisch et al., 1984; cited from earlier work
[19] = system: HDF; experiment: proliferation assay (cell counting); format: cell-based
Description: as §3

[20] = system: p21 mRNA and protein of p53-/- HCT116; experiment: Northern and Western blot analysis of p21; format: cell-based, human; details: 1.5 µM LY
Description: as §2, §1

[21] = system: NIH3T3-L1 cells expressing the K1-mutant; experiment: proliferation assay (cell counting); format: cell-based, mouse; details: 1.5 µM LY; most cells
Description: as §3

[22] = system: p16INK4A-deficient mouse embryo fibroblasts (MEF); experiment: proliferation (data not shown); format: cell-based; details: LY
Description: as §3

[23] = system: HeLa; experiment: cell death / apoptosis (histone H2B-eGFP chromatin morphology, sub-G1 flow cytometry); format: cell-based, human
Description: as §5, §4

For `COc1cccc2c1C(=O)c1c(O)c3c(c(O)c1C2=O)C[C@@](O)(C(=O)CO)C[C@@H]3O[C@H]1C[C@H](N)[C@H](O)[C@H](C)O1` [adriamycin], the p21 protein ([1]; wildtype HCT116 only, adriamycin at 0.2 µg/ml for 8 hours) was “induction of p21 protein” and the “p21 mRNA” value [2] was “induction of p21 mRNA”.
For `O=C1C(Nc2ccccc2)=CC(=O)c2ncccc21` [LY, 6-Anilino-quinoline-5,8-quinone], the cell-cycle inhibition ([3]; LY vs vehicle (DMSO)) was “resistant to cell-cycle inhibition”, the cell proliferation ([3]; after 5 days of LY treatment) was “regained exponential proliferation” and the cell proliferation ([4]; after addition of LY) was “complete cessation of cell proliferation”. The cell proliferation ([4]; wild-type HCT116, after 5 days of LY treatment) was “complete cessation of proliferation”, the cell proliferation [5] was “complete cessation of cell proliferation” and the cell proliferation [6] was “complete cessation of cell proliferation”. For the same molecule, the cell proliferation [7] was “complete block of proliferation”, the “signs of senescence (morphology, SA-β-galactosidase)” value [8] was “morphological changes characteristic of senescence and by SA-β-galactosidase staining at pH 6” and the “entry into S-phase” value [9] was “almost completely blocked the entry into S-phase”. For the same molecule, the “induction of p16INK4A” value [10] was “not induced”, the “level of p53 protein” value [11] was “did not increase” and the “induction of p27 and p15” value [12] was “did not lead to induction”. For the same molecule, the p21 protein ([1]; 1.5 µM LY) was “induction of p21”, the inhibition at 1 µM [13] was 60% and the “ratio of phosphorylated to hypo-phosphorylated pRb” value ([14]; 6 hours after addition of LY) was “clearly shifted towards the hypo-phosphorylated form”. For the same molecule, the pRb phosphorylation status ([14]; 19 hours after addition of LY) was “almost completely hypo-phosphorylated”, the cell fate [15] was “underwent cell death” and the “DNA synthesis as determined by BrdU incorporation” value [16] was “complete inhibition of DNA synthesis”. The cell fate [17] was “underwent apoptosis”, the IC50 [18] was 2000 nM and the inhibition at 0.25 µM ([19]; Homo sapiens, HDF, 72 h, read-out: reduction in proliferation) was 50%. The inhibition of proliferation ([19]; early passage fibroblasts, 1 µM LY) was “completely inhibit proliferation”, the “proliferation after extended treatment” value ([19]; treatment for 8 days) was “stable inhibition of proliferation” and the “toxicity after extended treatment” value ([19]; treatment for 8 days) was “did not cause any obvious toxicity”. For the same molecule, the “reversibility of inhibition of proliferation” value ([19]; treatment period of more than 2 days, 1 µM LY) was “irreversible”, the “levels of p21 mRNA and protein” value [20] was “induced with kinetics similar to those observed in HDF” and the cell proliferation [21] was “inhibition of proliferation”. For the same molecule, the cell proliferation [22] was “inhibited”, the chromatin morphology ([23]; HeLa expressing histone H2B-eGFP, 2 µM LY for 48 hours) was “chromatin condensation” and the “cells with a sub-G1 DNA content” value ([23]; HeLa treated for 60 hours with LY, flow-cytometry) was “substantial increase of cells with a sub-G1 DNA content”. For the same molecule, the cell fate ([23]; treatment with LY, no arrest, data not shown) was “underwent cell death”.
